Reference: ChEMBL document CHEMBL3885881, “DrugMatrix”

Species: Rattus norvegicus
Experiment: DrugMatrix - Regimen: Daily Repeat
Format: toxicity, organism-based, Sprague-Dawley
Parameters: regimen Daily Repeat, gender Male, age 6-8 weeks
Details: in vivo, po, route oral GAVAGE, vehicle .5 % CMC; for ABSOLUTE BASOPHIL / ABSOLUTE EOSINOPHIL / ABSOLUTE LYMPHOCYTE / ABSOLUTE MONOCYTE / ABSOLUTE SEGMENTED NEUTROPHIL / BASOPHIL / EOSINOPHIL / ERYTHROCYTE COUNT / HEMATOCRIT / HEMOGLOBIN / LEUKOCYTE COUNT / LYMPHOCYTE / MEAN CORPUSCULAR HEMOGLOBIN / MEAN CORPUSCULAR HEMOGLOBIN CONCENTRATION / MEAN CORPUSCULAR VOLUME / MONOCYTE / NEUTROPHIL / NUCLEATED RED BLOOD CELLS / PLATELET COUNT: tissue Blood; for ALANINE AMINOTRANSFERASE / ALBUMIN / ALKALINE PHOSPHATASE / ASPARTATE AMINOTRANSFERASE / BLOOD UREA NITROGEN / CARBON DIOXIDE / CHLORIDE / CHOLESTEROL / CREATINE PHOSPHOKINASE / CREATININE / GLUCOSE / LACTATE DEHYDROGENASE / LIPASE / PHOSPHORUS / POTASSIUM / SODIUM / TOTAL BILIRUBIN / TOTAL PROTEIN / URIC ACID: tissue Plasma
[1] = 50 mg/kg, 72 h, dose level Low, time 3 day
[2] = 50 mg/kg, 120 h, dose level Low, time 5 day
[3] = 1200 mg/kg, 72 h, dose level High, time 3 day
[4] = 1200 mg/kg, 120 h, dose level High, time 5 day

CC[C@H](C)C(=O)O[C@H]1CCC=C2C=C[C@H](C)[C@H](CC[C@@H]3C[C@@H](O)CC(=O)O3)[C@H]21 [MEVASTATIN]
ABSOLUTE BASOPHIL [1]: 0 CELLS/uL | ABSOLUTE EOSINOPHIL [1]: 41.33 CELLS/uL | ABSOLUTE LYMPHOCYTE [1]: 11887.33 CELLS/uL | ABSOLUTE MONOCYTE [1]: 84.33 CELLS/uL | ABSOLUTE SEGMENTED NEUTROPHIL [1]: 587 CELLS/uL | BASOPHIL [1]: 0% | EOSINOPHIL [1]: 0.33% | ERYTHROCYTE COUNT [1]: 5.78 x10E6/uL | HEMATOCRIT [1]: 37.3% | HEMOGLOBIN [1]: 14.77 G/DL | LEUKOCYTE COUNT [1]: 12.6 x10E3/uL | LYMPHOCYTE [1]: 94.33% | MEAN CORPUSCULAR HEMOGLOBIN [1]: 25.53 pg | MEAN CORPUSCULAR HEMOGLOBIN CONCENTRATION [1]: 39.6 G/DL | MEAN CORPUSCULAR VOLUME [1]: 64.47 fL | MONOCYTE [1]: 0.67% | NEUTROPHIL [1]: 4.67% | NUCLEATED RED BLOOD CELLS [1]: 1 /100WBC | PLATELET COUNT [1]: 1148.33 x10E3/uL | ALANINE AMINOTRANSFERASE [1]: 48.67 u/L | ALBUMIN [1]: 4.43 G/DL | ALKALINE PHOSPHATASE [1]: 400 u/L | ASPARTATE AMINOTRANSFERASE [1]: 85.67 u/L | BLOOD UREA NITROGEN [1]: 16 mg/dL | CARBON DIOXIDE [1]: 25.33 mmol/L | CHLORIDE [1]: 100.33 MEQ/L | CHOLESTEROL [1]: 87 mg/dL | CREATINE PHOSPHOKINASE [1]: 404 u/L | CREATININE [1]: 0.2 mg/dL | GLUCOSE [1]: 161 mg/dL | LACTATE DEHYDROGENASE [1]: 232.67 u/L | LIPASE [1]: 8.67 u/L | PHOSPHORUS [1]: 14.2 mg/dL | POTASSIUM [1]: 6.89 MEQ/L | SODIUM [1]: 146.63 MEQ/L | TOTAL BILIRUBIN [1]: 0.33 mg/dL | TOTAL PROTEIN [1]: 6.2 G/DL | URIC ACID [1]: 1.93 mg/dL | ABSOLUTE BASOPHIL [2]: 0 CELLS/uL | ABSOLUTE EOSINOPHIL [2]: 47 CELLS/uL | ABSOLUTE LYMPHOCYTE [2]: 15631 CELLS/uL | ABSOLUTE MONOCYTE [2]: 0 CELLS/uL | ABSOLUTE SEGMENTED NEUTROPHIL [2]: 1122 CELLS/uL | BASOPHIL [2]: 0% | EOSINOPHIL [2]: 0.33% | ERYTHROCYTE COUNT [2]: 5.52 x10E6/uL | HEMATOCRIT [2]: 35.63% | HEMOGLOBIN [2]: 13.8 G/DL | LEUKOCYTE COUNT [2]: 16.8 x10E3/uL | LYMPHOCYTE [2]: 93% | MEAN CORPUSCULAR HEMOGLOBIN [2]: 25.03 pg | MEAN CORPUSCULAR HEMOGLOBIN CONCENTRATION [2]: 38.77 G/DL | MEAN CORPUSCULAR VOLUME [2]: 64.6 fL | MONOCYTE [2]: 0% | NEUTROPHIL [2]: 6.67% | NUCLEATED RED BLOOD CELLS [2]: 1 /100WBC | PLATELET COUNT [2]: 1219.33 x10E3/uL | ALANINE AMINOTRANSFERASE [2]: 52.67 u/L | ALBUMIN [2]: 4.5 G/DL | ALKALINE PHOSPHATASE [2]: 335.67 u/L | ASPARTATE AMINOTRANSFERASE [2]: 79.67 u/L | BLOOD UREA NITROGEN [2]: 15.67 mg/dL | CARBON DIOXIDE [2]: 25.67 mmol/L | CHLORIDE [2]: 103 MEQ/L | CHOLESTEROL [2]: 67.33 mg/dL | CREATINE PHOSPHOKINASE [2]: 212.33 u/L | CREATININE [2]: 0.19 mg/dL | GLUCOSE [2]: 153.33 mg/dL | LACTATE DEHYDROGENASE [2]: 162 u/L | LIPASE [2]: 9 u/L | PHOSPHORUS [2]: 12.43 mg/dL | POTASSIUM [2]: 6.8 MEQ/L | SODIUM [2]: 146.23 MEQ/L | TOTAL BILIRUBIN [2]: 0.23 mg/dL | TOTAL PROTEIN [2]: 6.3 G/DL | URIC ACID [2]: 1.63 mg/dL | ABSOLUTE BASOPHIL [3]: 0 CELLS/uL | ABSOLUTE EOSINOPHIL [3]: 56 CELLS/uL | ABSOLUTE LYMPHOCYTE [3]: 15055 CELLS/uL | ABSOLUTE MONOCYTE [3]: 329 CELLS/uL | ABSOLUTE SEGMENTED NEUTROPHIL [3]: 1226.67 CELLS/uL | BASOPHIL [3]: 0% | EOSINOPHIL [3]: 0.33% | ERYTHROCYTE COUNT [3]: 5.72 x10E6/uL | HEMATOCRIT [3]: 38.57% | HEMOGLOBIN [3]: 15.2 G/DL | LEUKOCYTE COUNT [3]: 16.67 x10E3/uL | LYMPHOCYTE [3]: 90.33% | MEAN CORPUSCULAR HEMOGLOBIN [3]: 26.6 pg | MEAN CORPUSCULAR HEMOGLOBIN CONCENTRATION [3]: 39.43 G/DL | MEAN CORPUSCULAR VOLUME [3]: 67.5 fL | MONOCYTE [3]: 2% | NEUTROPHIL [3]: 7.33% | NUCLEATED RED BLOOD CELLS [3]: 0.67 /100WBC | PLATELET COUNT [3]: 1303 x10E3/uL | ALANINE AMINOTRANSFERASE [3]: 47.67 u/L | ALBUMIN [3]: 4.63 G/DL | ALKALINE PHOSPHATASE [3]: 402.33 u/L | ASPARTATE AMINOTRANSFERASE [3]: 96.67 u/L | BLOOD UREA NITROGEN [3]: 20 mg/dL | CARBON DIOXIDE [3]: 29.33 mmol/L | CHLORIDE [3]: 102.67 MEQ/L | CHOLESTEROL [3]: 68.33 mg/dL | CREATINE PHOSPHOKINASE [3]: 235 u/L | CREATININE [3]: 0.16 mg/dL | GLUCOSE [3]: 180 mg/dL | LACTATE DEHYDROGENASE [3]: 194 u/L | LIPASE [3]: 9 u/L | PHOSPHORUS [3]: 14.33 mg/dL | POTASSIUM [3]: 7.63 MEQ/L | SODIUM [3]: 146.93 MEQ/L | TOTAL BILIRUBIN [3]: 0.13 mg/dL | TOTAL PROTEIN [3]: 6.37 G/DL | URIC ACID [3]: 2.77 mg/dL | ABSOLUTE BASOPHIL [4]: 0 CELLS/uL | ABSOLUTE EOSINOPHIL [4]: 0 CELLS/uL | ABSOLUTE LYMPHOCYTE [4]: 14826.67 CELLS/uL | ABSOLUTE MONOCYTE [4]: 346.67 CELLS/uL | ABSOLUTE SEGMENTED NEUTROPHIL [4]: 1426.67 CELLS/uL | BASOPHIL [4]: 0% | EOSINOPHIL [4]: 0% | ERYTHROCYTE COUNT [4]: 5.39 x10E6/uL | HEMATOCRIT [4]: 33.63% | HEMOGLOBIN [4]: 13.5 G/DL | LEUKOCYTE COUNT [4]: 16.6 x10E3/uL | LYMPHOCYTE [4]: 89.67% | MEAN CORPUSCULAR HEMOGLOBIN [4]: 25.1 pg | MEAN CORPUSCULAR HEMOGLOBIN CONCENTRATION [4]: 40.2 G/DL | MEAN CORPUSCULAR VOLUME [4]: 62.43 fL | MONOCYTE [4]: 2% | NEUTROPHIL [4]: 8.33% | NUCLEATED RED BLOOD CELLS [4]: 0 /100WBC | PLATELET COUNT [4]: 1567.67 x10E3/uL | ALANINE AMINOTRANSFERASE [4]: 54.33 u/L | ALBUMIN [4]: 4.5 G/DL | ALKALINE PHOSPHATASE [4]: 319 u/L | ASPARTATE AMINOTRANSFERASE [4]: 97 u/L | BLOOD UREA NITROGEN [4]: 19.33 mg/dL | CARBON DIOXIDE [4]: 33 mmol/L | CHLORIDE [4]: 100.33 MEQ/L | CHOLESTEROL [4]: 65.33 mg/dL | CREATINE PHOSPHOKINASE [4]: 319.67 u/L | CREATININE [4]: 0.19 mg/dL | GLUCOSE [4]: 136.67 mg/dL | LACTATE DEHYDROGENASE [4]: 464 u/L | LIPASE [4]: 8.67 u/L | PHOSPHORUS [4]: 12.33 mg/dL | POTASSIUM [4]: 6.95 MEQ/L | SODIUM [4]: 143.97 MEQ/L | TOTAL BILIRUBIN [4]: 0.2 mg/dL | TOTAL PROTEIN [4]: 6.1 G/DL | URIC ACID [4]: 1.8 mg/dL
